Earlier results in patent publication US8580852B2, “2-oxamide inhibitors of phospholipase A2 activity and cellular arachidonate release based on dipeptides and pseudopeptides” (The Regents of the University of California, priority 2009, dated 2013).
Marks after values point to notes of the source that are not given here.

Columns and labels:
[1] = biological target: T1, GIVA cPLA2 (Homo sapiens, UniProt P47712); details: cited from earlier work; for Inhibition of GIVA cPLA2 (in words): in vitro, inhibitors previously reported, also inhibit GVIA iPLA2 and GV sPLA2
T1 sequence (P47712 1-749): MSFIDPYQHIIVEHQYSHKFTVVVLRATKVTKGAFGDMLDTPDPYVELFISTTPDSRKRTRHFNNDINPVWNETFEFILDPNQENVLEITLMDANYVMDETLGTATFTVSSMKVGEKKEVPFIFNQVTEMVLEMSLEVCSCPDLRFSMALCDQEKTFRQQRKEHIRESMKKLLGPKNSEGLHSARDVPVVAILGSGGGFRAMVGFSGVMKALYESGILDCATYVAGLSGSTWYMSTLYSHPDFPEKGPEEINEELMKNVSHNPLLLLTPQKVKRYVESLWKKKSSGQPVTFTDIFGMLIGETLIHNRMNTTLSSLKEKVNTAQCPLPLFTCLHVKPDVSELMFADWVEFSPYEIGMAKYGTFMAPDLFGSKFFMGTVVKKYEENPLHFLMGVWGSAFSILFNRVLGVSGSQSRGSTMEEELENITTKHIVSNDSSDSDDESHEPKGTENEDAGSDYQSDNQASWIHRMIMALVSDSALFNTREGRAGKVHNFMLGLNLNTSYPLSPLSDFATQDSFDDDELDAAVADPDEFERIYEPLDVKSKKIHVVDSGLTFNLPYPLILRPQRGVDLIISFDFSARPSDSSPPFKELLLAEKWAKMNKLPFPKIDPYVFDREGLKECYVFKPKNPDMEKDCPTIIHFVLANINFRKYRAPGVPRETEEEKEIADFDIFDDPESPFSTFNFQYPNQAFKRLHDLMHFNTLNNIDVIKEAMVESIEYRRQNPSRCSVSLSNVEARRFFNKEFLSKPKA

[2] = biological target: T2, GVIA iPLA2 (Homo sapiens, UniProt O60733); details: reference inhibitors; data taken from ref 15; cited from earlier work
T2 sequence (O60733 1-806): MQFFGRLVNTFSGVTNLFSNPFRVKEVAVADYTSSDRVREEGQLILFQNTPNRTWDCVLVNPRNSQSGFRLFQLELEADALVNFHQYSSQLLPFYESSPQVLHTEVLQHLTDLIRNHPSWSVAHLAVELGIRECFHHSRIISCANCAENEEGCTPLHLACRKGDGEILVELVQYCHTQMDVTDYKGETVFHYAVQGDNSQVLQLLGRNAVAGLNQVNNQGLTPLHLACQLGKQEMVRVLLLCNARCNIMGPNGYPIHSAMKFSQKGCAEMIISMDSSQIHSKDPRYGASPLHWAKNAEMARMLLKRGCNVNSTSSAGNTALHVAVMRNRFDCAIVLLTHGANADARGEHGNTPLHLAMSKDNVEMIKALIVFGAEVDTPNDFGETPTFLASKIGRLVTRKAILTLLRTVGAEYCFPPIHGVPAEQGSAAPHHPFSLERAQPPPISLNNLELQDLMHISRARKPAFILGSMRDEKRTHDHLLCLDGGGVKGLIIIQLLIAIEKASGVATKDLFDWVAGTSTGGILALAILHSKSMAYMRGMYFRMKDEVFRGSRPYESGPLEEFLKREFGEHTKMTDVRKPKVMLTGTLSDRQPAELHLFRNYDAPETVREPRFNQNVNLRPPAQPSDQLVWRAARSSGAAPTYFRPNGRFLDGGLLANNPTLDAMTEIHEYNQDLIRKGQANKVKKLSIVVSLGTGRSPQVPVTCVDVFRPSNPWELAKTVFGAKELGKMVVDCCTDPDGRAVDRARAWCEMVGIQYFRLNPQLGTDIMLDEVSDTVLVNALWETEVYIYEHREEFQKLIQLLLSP

| Compound | Inhibition of GIVA cPLA2 (in words) [1] | GVIA iPLA2 X1(50) [2] | GIVA cPLA2 X1(50) ([1]; reference inhibitors, data taken from ref 15) |
| --- | --- | --- | --- |
| CCOC(=O)CCCNC(=O)C(=O)CC [Compound 24] | inhibit GIVA cPLA2 to a high extent, though not selectively |  |  |
| CCCCCCCCCCCCCCC(=O)C(=O)NCCCC(=O)OCC [AX048, reference compound] |  | 0.027 ± 0.009^b mole fraction | 0.022 ± 0.009^b mole fraction |
| CCNC(=O)OC[C@@H](CCC(=O)OC)NC(=O)C(=O)CC [Compound 23] | inhibit GIVA cPLA2 to a high extent, though not selectively |  |  |
| CCC[C@@H](CCC(=O)OC)NC(=O)C(=O)CC [Compound 27] | inhibit GIVA cPLA2 to a high extent, though not selectively |  |  |
